Test results reported in PubChem BioAssay (NCI).
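Where inhibition never reached the appropriate level, the endpoint shown equals the highest concentration tested. Otherwise, values were interpolated linearly from a five-concentration, 48-hour dose response in 96-well plates. At the TGI there is no net growth.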

Tests used:
Test in all cases: inhibition of tumour cell growth, NCI panel, 48 h
786-0 renal = test system: 786-0 renal
A498 renal = test system: A498 renal
ACHN renal = test system: ACHN renal
CAKI-1 renal = test system: CAKI-1 renal
CCRF-CEM leukemia = test system: CCRF-CEM leukemia
COLO 205 colon = test system: COLO 205 colon
DU-145 prostate = test system: DU-145 prostate
EKVX NSCLC = test system: EKVX NSCLC
HCC-2998 colon = test system: HCC-2998 colon
HCT-15 colon = test system: HCT-15 colon
HL-60(TB) leukemia = test system: HL-60(TB) leukemia
HOP-62 NSCLC = test system: HOP-62 NSCLC
HOP-92 NSCLC = test system: HOP-92 NSCLC
HS 578T breast = test system: HS 578T breast
IGROV1 ovarian = test system: IGROV1 ovarian
K-562 leukemia = test system: K-562 leukemia
KM12 colon = test system: KM12 colon
LOX IMVI melanoma = test system: LOX IMVI melanoma
M14 melanoma = test system: M14 melanoma
MCF7 breast = test system: MCF7 breast
MDA-MB-231 breast = test system: MDA-MB-231 breast
MDA-N = test system: MDA-N
MOLT-4 leukemia = test system: MOLT-4 leukemia
NCI-H226 lung = test system: NCI-H226 lung
NCI-H23 lung = test system: NCI-H23 lung
NCI-H460 lung = test system: NCI-H460 lung
NCI-H522 lung = test system: NCI-H522 lung
NCI/ADR-RES ovarian = test system: NCI/ADR-RES ovarian
OVCAR-3 ovarian = test system: OVCAR-3 ovarian
OVCAR-4 ovarian = test system: OVCAR-4 ovarian
OVCAR-5 ovarian = test system: OVCAR-5 ovarian
OVCAR-8 ovarian = test system: OVCAR-8 ovarian
PC-3 prostate = test system: PC-3 prostate
RPMI-8226 leukemia = test system: RPMI-8226 leukemia
RXF 393 renal = test system: RXF 393 renal
SF-268 CNS = test system: SF-268 CNS
SF-295 CNS = test system: SF-295 CNS
SF-539 CNS = test system: SF-539 CNS
SK-MEL-2 melanoma = test system: SK-MEL-2 melanoma
SK-MEL-28 melanoma = test system: SK-MEL-28 melanoma
SK-MEL-5 melanoma = test system: SK-MEL-5 melanoma
SK-OV-3 ovarian = test system: SK-OV-3 ovarian
SN12C renal = test system: SN12C renal
SNB-19 CNS = test system: SNB-19 CNS
SR leukemia = test system: SR leukemia
SW-620 colon = test system: SW-620 colon
TK-10 renal = test system: TK-10 renal
U251 CNS = test system: U251 CNS
UACC-257 melanoma = test system: UACC-257 melanoma
UO-31 renal = test system: UO-31 renal
A549 NSCLC = test system: A549 NSCLC
BT-549 breast = test system: BT-549 breast
HCT-116 colon = test system: HCT-116 colon
HT29 colon = test system: HT29 colon
MALME-3M melanoma = test system: MALME-3M melanoma
MDA-MB-435 = test system: MDA-MB-435
SNB-75 CNS = test system: SNB-75 CNS
T-47D breast = test system: T-47D breast
UACC-62 melanoma = test system: UACC-62 melanoma

CC1(C)CCC[C@]2(C)[C@H]3[C@H](C#N)c4cc(O)c(O)cc4O[C@@]3(C)CC[C@@H]12
TGI (786-0 renal): > 10 µM
TGI (A498 renal): > 10 µM
TGI (ACHN renal): > 10 µM
TGI (CAKI-1 renal): > 10 µM
TGI (CCRF-CEM leukemia): > 10 µM
TGI (COLO 205 colon): > 10 µM
TGI (DU-145 prostate): > 10 µM
TGI (EKVX NSCLC): > 10 µM
TGI (HCC-2998 colon): > 10 µM
TGI (HCT-15 colon): > 10 µM
TGI (HL-60(TB) leukemia): > 10 µM
TGI (HOP-62 NSCLC): > 10 µM
TGI (HOP-92 NSCLC): > 10 µM
TGI (HS 578T breast): > 10 µM
TGI (IGROV1 ovarian): > 10 µM
TGI (K-562 leukemia): > 10 µM
TGI (KM12 colon): > 10 µM
TGI (LOX IMVI melanoma): > 10 µM
TGI (M14 melanoma): > 10 µM
TGI (MCF7 breast): > 10 µM
TGI (MDA-MB-231 breast): > 10 µM
TGI (MDA-N): > 10 µM
TGI (MOLT-4 leukemia): > 10 µM
TGI (NCI-H226 lung): > 10 µM
TGI (NCI-H23 lung): > 10 µM
TGI (NCI-H460 lung): > 10 µM
TGI (NCI-H522 lung): > 10 µM
TGI (NCI/ADR-RES ovarian): > 10 µM
TGI (OVCAR-3 ovarian): > 10 µM
TGI (OVCAR-4 ovarian): > 10 µM
TGI (OVCAR-5 ovarian): > 10 µM
TGI (OVCAR-8 ovarian): > 10 µM
TGI (PC-3 prostate): > 10 µM
TGI (RPMI-8226 leukemia): > 10 µM
TGI (RXF 393 renal): > 10 µM
TGI (SF-268 CNS): > 10 µM
TGI (SF-295 CNS): > 10 µM
TGI (SF-539 CNS): > 10 µM
TGI (SK-MEL-2 melanoma): > 10 µM
TGI (SK-MEL-28 melanoma): > 10 µM
TGI (SK-MEL-5 melanoma): > 10 µM
TGI (SK-OV-3 ovarian): > 10 µM
TGI (SN12C renal): > 10 µM
TGI (SNB-19 CNS): > 10 µM
TGI (SR leukemia): > 10 µM
TGI (SW-620 colon): > 10 µM
TGI (TK-10 renal): > 10 µM
TGI (U251 CNS): > 10 µM
TGI (UACC-257 melanoma): > 10 µM
TGI (UO-31 renal): > 10 µM

O=C(O)CN1C(=O)C(Cc2ccc(O)cc2)N=C(c2cccc(O)c2)c2ccccc21 (stereo unspecified)
TGI (786-0 renal): > 100 µM
TGI (A498 renal): 25.3 µM
TGI (A549 NSCLC): > 100 µM
TGI (ACHN renal): > 100 µM
TGI (BT-549 breast): > 100 µM
TGI (DU-145 prostate): > 100 µM
TGI (EKVX NSCLC): > 100 µM
TGI (HCT-116 colon): > 100 µM
TGI (HCT-15 colon): > 100 µM
TGI (HL-60(TB) leukemia): > 100 µM
TGI (HOP-62 NSCLC): > 100 µM
TGI (HOP-92 NSCLC): > 100 µM
TGI (HS 578T breast): > 100 µM
TGI (HT29 colon): > 100 µM
TGI (IGROV1 ovarian): > 100 µM
TGI (K-562 leukemia): > 100 µM
TGI (KM12 colon): > 100 µM
TGI (LOX IMVI melanoma): > 100 µM
TGI (M14 melanoma): > 100 µM
TGI (MALME-3M melanoma): > 100 µM
TGI (MCF7 breast): > 100 µM
TGI (MDA-MB-231 breast): > 100 µM
TGI (MDA-MB-435): > 100 µM
TGI (MDA-N): 26 µM
TGI (MOLT-4 leukemia): > 100 µM
TGI (NCI-H226 lung): > 100 µM
TGI (NCI-H460 lung): > 100 µM
TGI (NCI-H522 lung): > 100 µM
TGI (OVCAR-3 ovarian): > 100 µM
TGI (OVCAR-4 ovarian): > 100 µM
TGI (OVCAR-5 ovarian): > 100 µM
TGI (OVCAR-8 ovarian): > 100 µM
TGI (PC-3 prostate): > 100 µM
TGI (RPMI-8226 leukemia): > 100 µM
TGI (SF-268 CNS): > 100 µM
TGI (SF-295 CNS): > 100 µM
TGI (SF-539 CNS): > 100 µM
TGI (SK-MEL-2 melanoma): > 100 µM
TGI (SK-MEL-28 melanoma): > 100 µM
TGI (SK-OV-3 ovarian): > 100 µM
TGI (SN12C renal): 34.8 µM
TGI (SNB-19 CNS): > 100 µM
TGI (SNB-75 CNS): > 100 µM
TGI (SR leukemia): > 100 µM
TGI (SW-620 colon): > 100 µM
TGI (T-47D breast): > 100 µM
TGI (TK-10 renal): > 100 µM
TGI (U251 CNS): > 100 µM
TGI (UACC-257 melanoma): > 100 µM
TGI (UACC-62 melanoma): > 100 µM
TGI (UO-31 renal): > 100 µM
